Test results: BindingDB's records for patent US20250313563 (The Broad Institute, 2025)
Several values for one entry are separate records, joined by “and”; a condition that tells them apart may be missing. Identical values can stand only once.

Key:
[1] = target: Glycogen synthase kinase-3 alpha (Homo sapiens, UniProt P49840); test: TR-FRET Assay
In short: (§1)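 Signal is measured as TR-FRET between a terbium anti-phospho-Ser641 antibody and streptavidin-d2, added after an EDTA quench. Compounds are preincubated 30 min in assay buffer.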

[2] = target: Glycogen synthase kinase-3 beta (Homo sapiens, UniProt P49841); test: TR-FRET Assay
In short: as §1

Glycogen synthase kinase-3 beta, sequence (P49841 whole entry): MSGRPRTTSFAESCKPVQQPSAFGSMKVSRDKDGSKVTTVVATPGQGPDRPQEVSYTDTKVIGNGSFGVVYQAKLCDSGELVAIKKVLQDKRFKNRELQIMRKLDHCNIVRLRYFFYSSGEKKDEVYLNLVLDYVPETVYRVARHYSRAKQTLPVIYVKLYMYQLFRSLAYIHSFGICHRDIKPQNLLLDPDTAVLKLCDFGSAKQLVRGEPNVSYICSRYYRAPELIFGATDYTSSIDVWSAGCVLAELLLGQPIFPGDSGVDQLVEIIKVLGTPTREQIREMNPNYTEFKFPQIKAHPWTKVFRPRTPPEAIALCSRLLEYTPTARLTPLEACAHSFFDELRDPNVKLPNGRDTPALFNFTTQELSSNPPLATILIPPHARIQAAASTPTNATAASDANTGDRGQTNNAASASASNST
Glycogen synthase kinase-3 alpha, sequence (P49840 whole entry): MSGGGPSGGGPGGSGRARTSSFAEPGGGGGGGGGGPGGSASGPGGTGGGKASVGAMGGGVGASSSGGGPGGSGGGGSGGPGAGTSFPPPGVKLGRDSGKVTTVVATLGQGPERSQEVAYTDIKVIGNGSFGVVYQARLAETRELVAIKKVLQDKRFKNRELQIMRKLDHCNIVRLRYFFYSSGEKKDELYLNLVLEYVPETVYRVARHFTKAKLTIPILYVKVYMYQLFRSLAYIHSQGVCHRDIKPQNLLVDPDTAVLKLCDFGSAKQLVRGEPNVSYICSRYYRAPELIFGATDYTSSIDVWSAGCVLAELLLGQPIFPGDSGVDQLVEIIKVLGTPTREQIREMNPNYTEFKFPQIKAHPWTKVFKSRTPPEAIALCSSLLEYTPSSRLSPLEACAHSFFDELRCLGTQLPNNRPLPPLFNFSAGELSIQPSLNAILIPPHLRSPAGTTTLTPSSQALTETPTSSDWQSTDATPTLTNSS

| Compound | IC50 [1] | IC50 [2] |
| --- | --- | --- |
| CC(C)(C)CC1=C2C(N=N1)NC1=C(C(=O)CC(C)(C)C1)[C@@]21CCc2cc(F)ccc21 (some centres undefined) [US20250313563, Compound 782425] | 0.1 to 1 µM | 0.1 to 1 µM |
| CC[C@@]1(c2cccc(-c3cc(C)nc(C)c3)c2)C2=CN=NC2NC2=C1C(=O)CC(C)(C)C2 (some centres undefined) [US20250313563, Compound 913223] | > 5 µM | > 5 µM |
| C[C@@H]1C[C@@]2(CCN1S(=O)(=O)c1ccn(C)n1)C1=C(N=NC1)NC1=C2C(=O)CC(C)(C)C1 [US20250313563, Compound 917160] | 0.1 to 1 µM | 0.1 to 1 µM |
| CC(=O)N1CCC2(C1)CC1(CO2)C2=C(N=NC2)NC2=C1C(=O)CC(C)(C)C2 (centres undefined) [US20250313563, Compound 948040] | < 0.1 µM | 0.1 to 1 µM |
| CC1(C)CC(=O)C2=C(C1)NC1N=NC(Br)=C1[C@@]21CCc2c(F)cccc21 (some centres undefined) [US20250313563, Compound 806938] | 0.1 to 1 µM | 1 to 5 µM |
| CC(=O)N1C[C@@]2(C[C@@]3(CO2)C2=C(N=NC2)NC2=C3C(=O)CC(C)(C)C2)[C@@H]1C [US20250313563, Compound 948438] | < 0.1 µM | < 0.1 µM |
| CC1(C)CC(=O)C2=C(C1)NC1=C(CN=N1)[C@@]21CCO[C@@H](C(C)(C)C)C1 [US20250313563, Compound 912113] | 1 to 5 µM | 1 to 5 µM |
| CC1(C)CC(=O)C2=C(C1)NC1=C(CN=N1)[C@@]21CCO[C@@H](C(F)(F)F)C1 [US20250313563, Compound 884024] | 1 to 5 µM | > 5 µM |
| CC1(C)CC(=O)C2=C(C1)NC1=C(CN=N1)C21CCN(S(=O)(=O)c2ccc(F)c(Cl)c2)CC1 [US20250313563, Compound 948117] | < 0.1 µM | < 0.1 µM |
| CC[C@@]1(c2cccc(-c3ccncc3C)c2)C2=CN=NC2NC2=C1C(=O)CC(C)(C)C2 (some centres undefined) [US20250313563, Compound 913047] | < 0.1 µM | < 0.1 µM and 0.1 to 1 µM |
| CC1(C)CC(=O)C2=C(C1)NC1N=NC=C1C21CCCN(c2ccncc2)CC1 (centres undefined) [US20250313563, Compound 932633] | > 5 µM | > 5 µM |
| CC[C@@]1(c2cccc(-c3cc(C)ncc3C)c2)C2=CN=NC2NC2=C1C(=O)CC(C)(C)C2 (some centres undefined) [US20250313563, Compound 943515] | 1 to 5 µM | > 5 µM |
| CC1(C)CC(=O)C2=C(C1)NC1=C(CN=N1)C21COC2(CN(C(=O)C3CCC3)C2)C1 (centres undefined) [US20250313563, Compound 947288] | < 0.1 µM and 0.1 to 1 µM | < 0.1 µM and 0.1 to 1 µM |
| CC[C@H]1C[C@]2(CCO1)C1=C(N=NC1)NC1=C2C(=O)CC(C)(C)C1 [US20250313563, Compound 907329] | 0.1 to 1 µM | 1 to 5 µM |
| CC(C)n1cc(S(=O)(=O)N2CCC3(CC2)C2=C(N=NC2)NC2=C3C(=O)CC(C)(C)C2)cn1 [US20250313563, Compound 947607] | < 0.1 µM | < 0.1 µM |
| CC1(C)CC(=O)C2=C(C1)NC1=C(CN=N1)C21CCCCCC1 [US20250313563, Compound 883978] | 0.1 to 1 µM | 0.1 to 1 µM |
| CC1(C)CC(=O)C2=C(C1)NC1=C(CN=N1)[C@]21C[C@H](n2cccn2)C1 [US20250313563, Compound 884005] | < 0.1 µM | < 0.1 µM |
| Cn1nccc1-c1cccc2c1CCC[C@@]21C2=CN=NC2NC2=C1C(=O)CC(C)(C)C2 (some centres undefined) [US20250313563, Compound 945551] | < 0.1 µM | < 0.1 µM |
| Cn1cc([C@H]2CC[C@]3(CC2)C2=C(N=NC2)NC2=C3C(=O)CC(C)(C)C2)cn1 [US20250313563, Compound 949322] | 0.1 to 1 µM | 1 to 5 µM |
| CC[C@]1(c2cccc(N(C)c3ccnc(C)c3)c2)C2=CN=NC2NC2=C1C(=O)CC(C)(C)C2 (some centres undefined) [US20250313563, Compound 932645] | 0.1 to 1 µM | 1 to 5 µM |
| CC1(C)CC(=O)C2=C(C1)NC1=C(CN=N1)C21COC2(CN(C(=O)C3CC3(F)F)C2)C1 (centres undefined) [US20250313563, Compound 947272] | < 0.1 µM | < 0.1 µM |
| CC1(C)CC(=O)C2=C(C1)NC1=C(CN=N1)[C@]21CCO[C@@H](C(F)(F)F)C1 [US20250313563, Compound 884021] | 0.1 to 1 µM | 0.1 to 1 µM |
| COc1ncccc1S(=O)(=O)N1CCC2(CC1)C1=C(N=NC1)NC1=C2C(=O)CC(C)(C)C1 [US20250313563, Compound 947260] | < 0.1 µM | < 0.1 µM and 0.1 to 1 µM |
| CC[C@@]1(c2cccc(N(c3cccnc3)C(C)C)c2)C2=CN=NC2NC2=C1C(=O)CC(C)(C)C2 (some centres undefined) [US20250313563, Compound 917087] | 0.1 to 1 µM | 1 to 5 µM |
| CC[C@]1(c2cc(-c3cnn(C)c3)ccc2F)C2=CN=NC2NC2=C1C(=O)CC(C)(C)C2 (some centres undefined) [US20250313563, Compound 909220] | < 0.1 µM | 0.1 to 1 µM |
| CC1(C)CC(=O)C2=C(C1)NC1=C(CN=N1)C21COC2(CN(S(=O)(=O)c3ccccc3)C2)C1 (centres undefined) [US20250313563, Compound 913002] | 0.1 to 1 µM | 1 to 5 µM |
| CC1(C)CC(=O)C2=C(C1)NC1=C(CN=N1)C21CCC(n2cnnc2)CC1 (centres undefined) [US20250313563, Compound 943894] | < 0.1 µM | 0.1 to 1 µM |
| CC[C@]1(c2cccc(-c3cc(C)ncc3C)c2)C2=CN=NC2NC2=C1C(=O)CC(C)(C)C2 (some centres undefined) [US20250313563, Compound 943514] | < 0.1 µM | < 0.1 µM |

Second part, the compound after the results:

| IC50 [1] | IC50 [2] | Compound |
| --- | --- | --- |
| < 0.1 µM | < 0.1 µM | COc1cccc(S(=O)(=O)N2CC[C@@]3(C2)C2=C(N=NC2)NC2=C3C(=O)CC(C)(C)C2)c1 [US20250313563, Compound 943486] |
| < 0.1 µM | < 0.1 µM and 0.1 to 1 µM | CCC1(c2cccc(S(=O)(=O)C3CC3)c2)C2=CN=NC2NC2=C1C(=O)CC(C)(C)C2 (centres undefined) [US20250313563, Compound 909204] |
| < 0.1 µM | < 0.1 µM | CCC1(c2cccc(S(=O)(=O)CCOC)c2)C2=CN=NC2NC2=C1C(=O)CC(C)(C)C2 (centres undefined) [US20250313563, Compound 918271] |
| < 0.1 µM | 0.1 to 1 µM | CCc1cccc(C2(CC)C3=C(N=NC3)NC3=C2C(=O)CC(C)(C)C3)c1 (centres undefined) [US20250313563, Compound 949083] |
| < 0.1 µM and 0.1 to 1 µM | < 0.1 µM and 1 to 5 µM | CC1(C)CC(=O)C2=C(C1)NC1=C(CN=N1)C21CCN(S(=O)(=O)c2cccc(Cl)c2)CC1 [US20250313563, Compound 947243] |
| < 0.1 µM | < 0.1 µM | CCC1(c2cccc(N(CC3CCCC3)C(C)=O)c2)C2=CN=NC2NC2=C1C(=O)CC(C)(C)C2 (centres undefined) [US20250313563, Compound 912166] |
| < 0.1 µM | < 0.1 µM | CCC1(c2cccc(-c3cncn3C)c2)C2=C(CC(C)(C)CC2=O)NC2N=NC(C)=C21 (centres undefined) [US20250313563, Compound 884001] |
| 1 to 5 µM | > 5 µM | CC[C@@]1(c2cccc(-c3c(C)ccc4c(C)cccc34)c2)C2=C(CC(C)(C)NC2=O)NC2N=NC(F)=C21 (some centres undefined) [US20250313563, Compound 949392] |
| < 0.1 µM | 0.1 to 1 µM | CC[C@]1(c2cccc(-c3cc(C)ncc3OC)c2)C2=CN=NC2NC2=C1C(=O)NC(C)(C)C2 (some centres undefined) [US20250313563, Compound 949522] |
| 1 to 5 µM | > 5 µM | CC[C@@]1(c2cccc(-c3ccnn3C)c2)C2=CN=NC2NC2=C1C(=O)NC1(CCOCC1)C2 (some centres undefined) [US20250313563, Compound 948526] |
| < 0.1 µM | 0.1 to 1 µM | CC[C@]1(c2cccc(C(F)(F)F)c2)C2=CN=NC2NC2=C1C(=O)N(c1ccsc1)CC2 (some centres undefined) [US20250313563, Compound 952630] |
| < 0.1 µM | < 0.1 µM and 0.1 to 1 µM | CCC1(c2cccc(-c3c(F)cncc3OC)c2)C2=CN=NC2NC2=C1C(=O)CC(C)(C)C2 (centres undefined) [US20250313563, Compound 945704] |
| 1 to 5 µM | > 5 µM | CC[C@@]1(c2cccc(-c3cc(C)ncc3OC)c2)C2=CN=NC2NC2=C1C(=O)NC(C)(C)C2 (some centres undefined) [US20250313563, Compound 949512] |
| < 0.1 µM | < 0.1 µM | CCC1(c2cccc(-c3cn(C)nc3C)c2)C2=C(CC(C)(C)NC2=O)NC2N=NC(F)=C21 (centres undefined) [US20250313563, Compound 948301] |
| 0.1 to 1 µM | > 1.67 µM | CC[C@]1(c2cccc(C(F)(F)F)c2)C2=C(CC(C)(C)CC2=O)NC2N=NC(C)=C21 (some centres undefined) [US20250313563, Compound 810368] |
| 0.1 to 1 µM | 1 to 5 µM | CC[C@@]1(c2cccc(-c3cc(C)nn3C)c2)C2=C(N=NC2)NC2=C1C(=O)C(C)(C)C2 [US20250313563, Compound 950818] |
| < 0.1 µM and 0.1 to 1 µM | < 0.1 µM and 1 to 5 µM | CC[C@]1(c2cccc(-c3ccncc3F)c2)C2=C(CC(C)(C)NC2=O)NC2N=NC(C(F)F)=C21 (some centres undefined) [US20250313563, Compound 951612] |
| < 0.1 µM | < 0.1 µM | CCC1(c2cccc(S(=O)(=O)C3CC3)c2)C2=C(CC(C)(C)NC2=O)NC2=C1C(C(F)(F)F)N=N2 (centres undefined) [US20250313563, Compound 947859] |
| < 0.1 µM | < 0.1 µM and 0.1 to 1 µM | CC[C@]1(c2cccc(-c3cn(C)nc3C)c2)C2=C(CC(C)(C)CC2=O)NC2N=NC(C)=C21 (some centres undefined) [US20250313563, Compound 913035] |
| < 0.1 µM | < 0.1 µM | CC[C@@]1(c2cccc(-c3cncn3C)c2)C2=C(CC(C)(C)CC2=O)NC2N=NC(C)=C21 (some centres undefined) [US20250313563, Compound 913032] |
| 1 to 5 µM | 0.1 to 1 µM | CC1(C)CC(=O)C2=C(C1)NC1N=NC(C(F)(F)F)=C1[C@@]21CCc2c(F)cccc21 (some centres undefined) [US20250313563, Compound 806568] |
| < 0.1 µM | 0.1 to 1 µM | CC[C@@]1(c2cccc(Br)c2)C2=CN=NC2NC2=C1C(=O)C[C@@H](C(F)(F)F)C2 (some centres undefined) [US20250313563, Compound 826652] |
| > 5 µM | > 5 µM | Cn1cc(-c2cccc([C@@]3(C)C4=C(CC(C)(C)CC4=O)NC4=C3C(CC(C)(C)C)N=N4)c2)cn1 (some centres undefined) [US20250313563, Compound 126367] |
| 0.1 to 1 µM | 1 to 5 µM | CCC1(c2cccc(OC)c2)C2=CN=NC2NC2=C1C(=O)CC(C)(C)C2 (centres undefined) [US20250313563, Compound 801447] |
